Measured values reported in paper PMC3799893 (Recent results in cancer research. Fortschritte der …, 2013).

Biological target: MC1R on B16/F10 murine melanoma cells (Mus musculus, UniProt Q01727)
Experiment: In vitro competitive binding assay

MC1R on B16/F10 murine melanoma cells, sequence (Q01727 whole entry): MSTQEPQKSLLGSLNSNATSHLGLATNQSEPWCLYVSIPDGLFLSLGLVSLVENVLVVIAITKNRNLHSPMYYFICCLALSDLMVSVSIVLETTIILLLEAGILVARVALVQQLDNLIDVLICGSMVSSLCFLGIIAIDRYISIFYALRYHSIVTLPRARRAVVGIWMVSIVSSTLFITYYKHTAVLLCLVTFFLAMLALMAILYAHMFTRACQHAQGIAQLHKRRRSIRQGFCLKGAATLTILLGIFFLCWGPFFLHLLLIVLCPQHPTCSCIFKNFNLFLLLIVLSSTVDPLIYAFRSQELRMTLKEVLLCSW

IC50: 1.8 ± 0.3 nM
SMILES: CSCC[C@H](NC(=O)[C@H](CO)NC(=O)[C@H](Cc1ccc(O)cc1)NC(=O)[C@H](CO)NC(=O)CN1CCN(CC(=O)O)CCN(CC(=O)O)CCN(CC(=O)O)CC1)C(=O)N[C@@H](CCC(=O)O)C(=O)N[C@@H](Cc1c[nH]cn1)C(=O)N[C@@H](Cc1ccccc1)C(=O)N[C@@H](CCCNC(=N)N)C(=O)N[C@@H](Cc1c[nH]c2ccccc12)C(=O)NCC(=O)N[C@@H](CCCCN)C(=O)N1CCC[C@H]1C(=O)N[C@H](C(N)=O)C(C)C [DOTA-a-MSH]
